Data set [1] deals with C6 gliomas. As to the kind of experiment: MR angiography of C6 gliomas (angiogenesis, arterial blood volumes). The data set is classed as in vivo, rat. How it is done:
Angiography. Coronal slices are acquired by a FLASH (fast low angle shot) method with a volume of interest of 2.7×1.7×1.2 cm^3, an echo time of 2.3 ms, a repetition time of 25 ms and a flip angle of 25° for an acquisition time of 27 min. A MIP (maximum intensity projection) technique was then applied to the data to obtain a 3D-angiography. Angiography was used to visualize new blood vessel formation, i.e., angiogenesis.
The method used was quantitative analysis (using a Mathematica-based program developed in our laboratory) of arterial signal intensities from in vivo MR angiography data. Glioma region arterial blood volumes were compared to blood volumes in the contralateral control cerebral hemisphere.

The test system of data set [2] is C6 gliomas. Put plainly: C6 glioma growth in rats monitored by T2-weighted MRI (tumor volumes, ImageJ). It counts as in vivo, rat. As for the experimental part: (§1) Cells injection. Three-month-old male Fischer 344 rats (250-350 g) were fed a choline-deficient diet. Each animal was anesthetized (3% isoflurane at 2.5 L/mn oxygen) and placed on a stereotaxic device (Stoelting, USA). The skin of the head was cleaned and incised. A hole was drilled through the skull 2 mm anterior and 2 mm lateral to the bregma, in the right-hand side of the skull. C6, 9L/LacZ or F98 cells (10^6 in 10 μL cell culture media) in a ultra-low gelling temperature agarose are injected in the cortex at a 3 mm-depth at a rate of 2 μL/mn. A waiting time of 2 min was implemented following injection and bone wax was put in the burr-hole to prevent any reflux. The wound was sutured and covered with surgical glue. The surgery was performed in sterile conditions. The syringes containing the C6, 9L/LacZ or F98 cells are kept at 37° C. until the moment of use.
PBN treatment. […] The treatment was continuous and was started at different time points. […] Some rats were not treated and served as controls (n=5).
MRI experiments. MRI experiments were performed on a 7 Tesla-30 cm horizontal bore magnet (Bruker BioSpin MRI Gmbh, Germany) at day 6-10 after the cells were injected and then every 2-3 days until the death of the rat. The animal was anesthetized (1.5% isoflurane at 1.5 L/mn oxygen) and placed in a MR probe (Bruker BioSpin MRI Gmbh, Germany). A head coil (Bruker BioSpin MRI Gmbh, Germany) was put on its head and the brain was localized.
(§2) Tumor growth monitoring. T1/T2-weighted images were obtained by a double-echo multi-slice spin echo method. Twenty-four axial slices of 1 mm thickness with an interslice distance of 1 mm were taken with a repetition time of 2369.64 ms and echo times of 17.41 ms and 63.85 ms for an acquisition time of 20 min. Tumor volumes were determined with the software ImageJ 1.32j (NIH, USA).
A T2-weighted morphological MRI method was used.

Data set [3] relates to C6 gliomas. Put plainly: Survival of rats with intracerebral C6 glioma. It counts as in vivo, rat. The source says: FIG. 11—Anti-Glioma Therapy/Percent Survival. […] Based on survival data obtained from FIG. 10.
For data set [4] the following is noted: cited from earlier work.
The test system of the next data set is F98 gliomas. As to the kind of experiment: F98 glioma growth in rats monitored by T2-weighted MRI. It counts as in vivo, rat. To be noted: PBN five days prior to intracerebral cell implantation. How it is done:
as §1, §2

The next data set deals with c-MET (Homo sapiens, UniProt P08581). Put plainly: c-MET inhibition.
Data set [5] deals with C6 gliomas. Put plainly: Image-guided MR spectroscopy, metabolite ratios in C6 glioma. It counts as in vivo, rat. To be noted: C6 glioma rats treated with PBN. As for the experimental part:
MRS experiments. Water suppression was performed by a CHESS (chemical shift suppression) method. A spectrum was acquired in a […] voxel in the tumor region and in the contralateral control side of the brain, by using PRESS (point resolved spectroscopy) with a repetition time of 3000 ms, an echo time of 21.34 ms for an acquisition time of 13 min. An outer volume suppression tool was used to get rid of the 5 mm thick surrounding signal around the voxel. The metabolite peaks were assigned as follows, based on previous literature (Fan et al., 2004; Griffin et al., 2003): NAA at 2.02 ppm, Cr at 3.03 ppm, Cho at 3.25 ppm and mobile lipids at 1.33 ppm (methylene group) and 0.9 ppm (methyl group). Peak areas were calculated in reference to Cr peak and relative ratios were determined: NAA/Cho, NAA/Cr, Cho/Cr and Lipids/Cr. A decrease in NAA levels and an increase in lipids are indicative of the presence of a glioma (Ishimaru et al., 2001).
MR spectral peak areas were measured using the Bruker XWIN NMR peak intragration software package.

The subject of data set [6] is HIF-1α. As to the kind of experiment: IGF-1 induced HIF-1α expression in HCT-116 cells. It counts as cell-based. To be noted: HCT116 human colon cancer cells, 20% O2. An excerpt: (§3) The band densities of HIF-1α were normalized by the bands of CoCl2 which was used as the positive control.
(§4) HIF-1α is a major transactivation factor which is central to the induction of VEGF as well as iNOS and many other genes very important in the development of cancer. VEGF is very important in angiogenesis essential for tumor growth and is a major target of several anti-cancer companies.

Data set [7] deals with C6 gliomas. Put plainly: Histology (H&E) of C6 glioma rat brain. It counts as in vivo. The following applies: C6 rat glioma treated with PBN. An excerpt: Note that PBN-treated C6 glioma rat brain has neuronal cells that appear similar to control rat brain. Untreated C6 glioma depicts malignant cells that are atypical in appearance (grade II to III) with few mitotic and apoptotic figures being present.
Conclusion. […] The malignant cells in the large neoplastic mass (FIG. 8B) were moderately atypical in appearance (grade II to III) with few mitotic and apoptotic figures being present. Large central areas of the mass […]) were also necrotic.

For data set [8], the system named is HIF-1α. As to the kind of experiment: IGF-1 induced HIF-1α expression in Hepa 1-6 cells. It counts as cell-based. To be noted: mouse hepatocellular carcinoma cell line (Hepa 1-6).
Excerpt: as §3, §4

Where [9] appears, read: PBN started 5 days before surgery.

“Also recorded” adds a separate entry of the source.

Sequence of c-MET (P08581 25-1390): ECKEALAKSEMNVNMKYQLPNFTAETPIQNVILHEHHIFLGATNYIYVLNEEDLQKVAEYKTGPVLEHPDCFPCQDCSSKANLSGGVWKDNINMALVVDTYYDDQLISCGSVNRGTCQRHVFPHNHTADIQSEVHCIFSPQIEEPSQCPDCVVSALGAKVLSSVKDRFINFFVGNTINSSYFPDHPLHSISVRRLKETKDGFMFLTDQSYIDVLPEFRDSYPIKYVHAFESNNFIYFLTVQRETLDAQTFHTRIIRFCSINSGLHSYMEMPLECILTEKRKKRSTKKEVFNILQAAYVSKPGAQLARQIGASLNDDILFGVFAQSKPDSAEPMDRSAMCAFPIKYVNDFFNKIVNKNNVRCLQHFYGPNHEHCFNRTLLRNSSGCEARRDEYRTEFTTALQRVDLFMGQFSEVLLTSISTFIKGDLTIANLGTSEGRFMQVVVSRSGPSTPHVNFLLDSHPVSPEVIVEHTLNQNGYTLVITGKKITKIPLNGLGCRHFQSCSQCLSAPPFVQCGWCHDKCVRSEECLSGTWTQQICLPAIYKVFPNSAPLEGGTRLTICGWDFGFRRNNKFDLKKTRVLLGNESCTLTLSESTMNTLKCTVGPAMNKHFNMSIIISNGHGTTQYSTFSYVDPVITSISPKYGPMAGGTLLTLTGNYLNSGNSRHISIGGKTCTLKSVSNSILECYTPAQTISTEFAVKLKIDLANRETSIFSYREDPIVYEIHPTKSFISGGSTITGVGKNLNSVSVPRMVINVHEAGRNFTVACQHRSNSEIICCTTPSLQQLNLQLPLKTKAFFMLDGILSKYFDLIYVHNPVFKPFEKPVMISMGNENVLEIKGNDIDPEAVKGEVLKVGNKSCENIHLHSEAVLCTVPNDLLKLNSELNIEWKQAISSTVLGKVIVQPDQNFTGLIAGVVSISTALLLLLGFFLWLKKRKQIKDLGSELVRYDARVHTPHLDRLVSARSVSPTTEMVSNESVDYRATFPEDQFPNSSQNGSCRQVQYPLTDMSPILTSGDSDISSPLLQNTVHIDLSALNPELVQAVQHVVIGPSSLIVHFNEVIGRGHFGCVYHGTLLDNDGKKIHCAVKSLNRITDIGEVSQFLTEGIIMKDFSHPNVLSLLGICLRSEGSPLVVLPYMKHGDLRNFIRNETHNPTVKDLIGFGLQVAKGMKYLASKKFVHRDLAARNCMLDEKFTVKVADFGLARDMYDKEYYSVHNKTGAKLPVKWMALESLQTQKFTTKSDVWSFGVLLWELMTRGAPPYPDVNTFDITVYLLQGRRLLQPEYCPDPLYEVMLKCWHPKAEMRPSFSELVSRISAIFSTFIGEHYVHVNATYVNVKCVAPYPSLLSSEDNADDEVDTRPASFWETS

Consider `CC(C)(C)[N+]([O-])=Cc1ccc(O)cc1` [4-hydroxy-PBN, 4-hydroxyphenyl N-tert-butylnitrone], for which the “animals with decrease in tumor growth and angiogenesis” value in the data set with C6 gliomas [1] (C6 gliomas, morphology and angiography data) is reported as 2 of 5. The “animals with suppressed and recessed tumor growth” value with C6 gliomas [2] (75 mg/kg/day in drinking water from 5 days prior to implantation, n=5) is 40%.

Consider `CC(C)(C)[N+]([O-])=Cc1ccccc1` [PBN, phenyl N-tert-butyl nitrone], for which the “normalized tumor arterial blood volumes” value with C6 gliomas [1] (C6 glioma, PBN 5 days prior to cell implantation, quantitative MR angiography) is listed as “suppression and/or a decrease in blood volumes”. The “changes in angiogenesis (angiograms)” value in the data set with C6 gliomas [1] (C6 gliomas, Example 2, qualitative MR angiography) is given as “did not seem to induce changes in angiogenesis”. In addition, in the data set on C6 gliomas [3] (PBN 5 days prior to C6 cell implantation), the “rats surviving longer than 40 days (study end-point)” value is reported as “Eighty”. For the same compound, the “rats surviving longer than 40 days” value with C6 gliomas [3] (PBN 14 days after C6 cell implantation) stood at 40%. In addition, the tissue distribution entry in [4] (rat, in vivo) was “readily and rapidly distributed almost equally to all tissues”. Further, the half-life entry in data set [4] (rats) was “about 132 minutes”. Moreover, the glioma development entry in the data set with F98 gliomas is reported as “not develop in all rats”. Also, on c-MET, the c-MET inhibition result is “inhibits c-MET”. Besides, in the data set with C6 gliomas [5], the “NAA levels compared to choline (Cho) levels” value is reported as “increase to normal levels” and the “lipid levels compared to creatine (Cr) levels” value is recorded as “decrease to normal levels”. The “induction of HIF-1α” value with HIF-1α [6] is “inhibits the induction of HIF-1α”. The compound also showed a doubling time in the data set with C6 gliomas [2] (PBN 75 mg/kg/day in drinking water started on the day of surgery or 5 days after) of 2.3 to 2.4 days. In the data set on C6 gliomas [2] (setting [9]), this compound came in with a doubling time of 4.1 days and a maximum tumor volume of 50 mm^3. In the data set on C6 gliomas [2] (PBN started on the day of surgery or 5 days after), the “tumor course after maximal volume” value is recorded as “the tumor starts to regress until it almost completely disappears”. The “animals with recession of tumor / eradication of further tumor formation” value in the data set on C6 gliomas [2] (PBN starting 14 days after cell implantation, tumors >50 mm3) is given as 40%. In the data set with C6 gliomas [2] (continuous PBN starting 5 days prior to cell implantation, n=5), the glioma growth outcome is on record as “recession to no tumor in all animals studied; also recorded: either not develop or recede once intially formed in all rats”. Also, the “histology (H&E), tumor cells” value in the data set on C6 gliomas [7] was “no evidence of tumor cells”. Also, the “induction of HIF-1α” value in the data set on HIF-1α [8] is “inhibits the induction of HIF-1α”.
